Molecular target: MCL-1/Bim interaction (recombinant human MCL-1 protein, residues 171-327; biotinylated human Bim peptide, residues 51-76) (Homo sapiens (Human), UniProt Q07820)
Experiment: MCL-1/Bim Binding AlphaLISA Assay
Conditions: 0.0625 nM 6xHis-Mcl-1 (171-327), 0.0625 nM biotinylated-Bim peptide
Procedure: MCL-1/Bim Binding AlphaLISA Assay.
Inhibition of the MCL-1 and Bim interaction was measured in the following AlphaLISA assay.
Recombinant human MCL-1 protein (C-terminal 6×His Tagged Mcl-1 containing residues 171-327) was generated at Gilead Sciences, Inc. (Foster City, Calif.). A biotinylated peptide derived from human Bim (residues 51-76) was purchased from CPC Scientific (Sunnyvale, Calif.). (CPC 834113). AlphaLISA anti-6His-acceptor beads (AL128R), AlphaScreen Streptavidin donor beads (6760002B), and Proxiplate-384 Plus (6008289) were purchased from PerkinElmer.
The AlphaLISA assay was performed in a 384-well Proxiplate in a total volume of […]. The reaction mixture contained 0.0625 nM 6×His-Mcl-1 (171-327), 0.0625 nM biotinylated-Bim peptide, 10 μg/mL AlphaLISA anti-6×His-AlphaLISA acceptor beads, […] AlphaScreen streptavidin donor beads, and serially diluted test compounds in the binding buffer (20 mM Hepes, pH 7.5 (Teknova H1035); 150 mM NaCl (Promega V4221); 0.002% Brij 35 (Thermo Scientific 20150); 1 mM Dithiothreitol (DTT) Solution (Affymetrix 70726); 0.01% BSA (BioLabs B9000S)). 1,000×test compounds were pre-spotted onto 384-well Proxiplate (Labcyte Echo) by Echo 555 Liquid Handler (Labcyte Inc., San Jose, Calif.) followed by incubation of 5 μl Mcl-1(171-327) for 1 hour. Then 5 μL Bim (51-76) was added and incubated for 2 hours. Five μL AlphaLISA anti-6His-AlphaLISA acceptor beads were then added for 1 hour followed by addition of 5 μL AlphaScreen streptavidin donor beads for 1 hour. The reaction plates were then read on an Envision multimode reader (PerkinElmer) using AlphaScreen settings. […] Percent inhibition was calculated as shown below: % Inhibition=100%*(Well−Neg)/(Pos−Neg) Neg: negative control, DMSO Pos: positive control, no Mcl-1 protein, no biotinylated-Bim peptide

Chain of MCL-1/Bim interaction (recombinant human MCL-1 protein, residues 171-327; biotinylated human Bim peptide, residues 51-76) (Q07820 171-327): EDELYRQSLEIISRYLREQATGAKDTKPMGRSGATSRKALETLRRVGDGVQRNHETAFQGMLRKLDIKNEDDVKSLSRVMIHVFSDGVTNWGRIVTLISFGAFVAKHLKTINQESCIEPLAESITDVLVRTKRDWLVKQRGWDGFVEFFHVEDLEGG

| IC50 [pM] | SMILES |
| --- | --- |
| 113 | CO[C@H]1/C=C/C[C@H](C)[C@@H](C)[S@@](=O)(NC(=O)COC2COC2)=NC(=O)c2ccc3c(c2)N(C[C@@H]2CC[C@H]21)C[C@@]1(CCCc2cc(Cl)ccc21)CO3 [Example 407] |
| 100 | CO[C@H]1/C=C/C[C@H](C)C[S@@](=O)(NC(=O)COC2CCOCC2)=NC(=O)c2ccc3c(c2)N(C[C@@H]2CC[C@H]21)C[C@@]1(CCCc2cc(Cl)ccc21)CO3 [Example 106] |
| 263 | C[C@@H]1[C@@H](C)C/C=C/[C@H](O)[C@@H]2CC[C@H]2CN2C[C@@]3(CCCc4cc(Cl)ccc43)COc3ccc(cc32)C(=O)N=[S@]1(=O)NC(=O)c1cc2n(c1)CC(C)(C)OC2 [Example 264] |
| 2630 | CO[C@H]1/C=C/C[C@H](C)[C@@H](C)[S@](N)(=O)=NC(=O)c2ccc3c(c2)N(C[C@@H]2CC[C@H]21)C[C@@]1(CCCc2cc(Cl)ccc21)CO3 (single isomer, unassigned) [Example 110] |
| 96 | COCC1(C)Cn2cc(C(=O)N[S@@]3(=O)=NC(=O)c4ccc5c(c4)N(C[C@@H]4CC[C@H]4[C@@H](O)/C=C/C[C@H](C)[C@H]3C)C[C@@]3(CCCc4cc(Cl)ccc43)CO5)cc2CO1 (some centres unmarked) [Example 255] |
| 64 | COC[C@H]1C[C@H](NC(=O)N[S@@]2(=O)=NC(=O)c3ccc4c(c3)N(C[C@@H]3CC[C@H]3[C@@H](OC)/C=C/C[C@H](C)C2)C[C@@]2(CCCc3cc(Cl)ccc32)CO4)C1 [Example 200] |
| 47 | CO[C@H]1/C=C/C[C@H](C)C[S@@](=O)(NC(=O)N[C@H]2[C@@H]3COC[C@@H]32)=NC(=O)c2ccc3c(c2)N(C[C@@H]2CC[C@H]21)C[C@@]1(CCCc2cc(Cl)ccc21)CO3 [Example 206] |
| 61 | C[C@@H]1[C@@H](C)C/C=C/[C@H](O)[C@@H]2CC[C@H]2CN2C[C@@]3(CCCc4cc(Cl)ccc43)COc3ccc(cc32)C(=O)N=[S@]1(=O)NC(=O)N[C@@H]1C[C@H]1C(F)F [Example 260] |
| 36 | CO[C@H]1/C=C/C[C@H](C)C[S@@](=O)(NC(=O)c2cnn(C3CC3)c2)=NC(=O)c2ccc3c(c2)N(C[C@@H]2CC[C@H]21)C[C@@]1(CCCc2cc(Cl)ccc21)CO3 [Example 151] |

The next lines start with the compound.

| SMILES | IC50 [pM] |
| --- | --- |
| COCCOc1nn(C)cc1C(=O)N[S@@]1(=O)=NC(=O)c2ccc3c(c2)N(C[C@@H]2CC[C@H]2[C@@H](OC)/C=C/C[C@H](C)C1)C[C@@]1(CCCc2cc(Cl)ccc21)CO3 [Example 216] | 196 |
| COc1nnc(C)cc1C(=O)N[S@@]1(=O)=NC(=O)c2ccc3c(c2)N(C[C@@H]2CC[C@H]2[C@@H](OC)/C=C/C[C@H](C)C1)C[C@@]1(CCCc2cc(Cl)ccc21)CO3 [Example 460] | 89 |
| CO[C@H]1/C=C/C[C@H](C)C[S@@](=O)(NC(=O)N2CC(Oc3ccccn3)C2)=NC(=O)c2ccc3c(c2)N(C[C@@H]2CC[C@H]21)C[C@@]1(CCCc2cc(Cl)ccc21)CO3 [Example 463] | 219 |
| C[C@@H]1[C@@H](C)C/C=C/[C@H](O)[C@@H]2CC[C@H]2CN2C[C@@]3(CCCc4cc(Cl)ccc43)COc3ccc(cc32)C(=O)N=[S@]1(=O)NC(=O)c1cc2n(c1)CC(C)(CN1CCOCC1)OC2 (some centres unmarked) [Example 259] | 98 |
| CO[C@H]1/C=C/C[C@H](C)C[S@@](=O)(NC(=O)NCC2CC2)=NC(=O)c2ccc3c(c2)N(C[C@@H]2CC[C@H]21)C[C@@]1(CCCc2cc(Cl)ccc21)CN3 [Example 107] | 100 |
| COCCO[C@H]1/C=C/[C@H](OC)[C@@H]2CC[C@H]2CN2C[C@@]3(CCCc4cc(Cl)ccc43)COc3ccc(cc32)C(=O)N=[S@](=O)(NC(=O)c2cn(C)nc2OC)C[C@H]1C [Example 291] | 39 |
| CO[C@H]1/C=C/C[C@H](C)C[S@@](=O)(NC(=O)c2cc(CN(C)C3CCOCC3)n(C)c2)=NC(=O)c2ccc3c(c2)N(C[C@@H]2CC[C@H]21)C[C@@]1(CCCc2cc(Cl)ccc21)CO3 [Example 241] | 87 |
| CCn1cc(C(=O)N[S@@]2(=O)=NC(=O)c3ccc4c(c3)N(C[C@@H]3CC[C@H]3[C@@H](OC)/C=C/CCC2)C[C@@]2(CCCc3cc(Cl)ccc32)CO4)cn1 [Example 104] | 100 |

From patent publication US10703733B2, “MCL-1 inhibitors” (Gilead Sciences, Inc., priority 2018, dated 2020)
